pIC50: −log10 of the molar value.
Columns and labels:
MCF7 = assay: Breast Cancer Cell Proliferation Assay (MCF-7); assay type: cell-based; conditions: Homo sapiens, 120 h; MCF7 cells, 5 days of compound exposure, Cell Titer-Glo
Experimental: Breast Cancer Cell Proliferation Assay (MCF-7)
MCF7 was expanded and maintained in the medium (Phenol red free DMEM/F12 (Hyclone SH30272.01) NEAA (Gibco11140-050) Na-pyruvate (Gibco 11360-070) and Re-stripped Charcoal stripped FBS (Gemini 100-119)). The cells were adjusted to a concentration of 3,000 cells per mL in the above media, and the cells were incubated (37° C., 5% CO2). The following day a 10 point, serial dilution of compounds was added to the cells at a final concentration ranging from 10-0.000005 μM for test compounds (17β-estradiol was used as a control). Additional cells were plated in 30 wells to serve as the day 1 (pretreatment) comparison. After 5 days of compound exposure, Cell Titer-Glo reagent was added to the cells and the relative luminescence units (RLUs) of each well was determined. Cell Titer-Glo was also added to 32 μL of medium without cells to obtain a background value. The plates were allowed to incubate at room temperature for 10 minutes to stabilize luminescent signal and the luminescence signal was recorded with EnSpire. The relative increase in cell number of each sample is determined as follows: (RLU sample-RLU background/RLU estrogen only treated cells-RLU background)×100=% inhibition.

ERα = target: T1, ERα (Homo sapiens, UniProt P03372); assay: ER Degradation Determination by Western Blot; assay type: cell-based; conditions: MCF-7 cells, 10 μM, 18-24 hours
T1 construct: endogenous in cells; host or cells: MCF-7
T1 sequence (P03372 1-595): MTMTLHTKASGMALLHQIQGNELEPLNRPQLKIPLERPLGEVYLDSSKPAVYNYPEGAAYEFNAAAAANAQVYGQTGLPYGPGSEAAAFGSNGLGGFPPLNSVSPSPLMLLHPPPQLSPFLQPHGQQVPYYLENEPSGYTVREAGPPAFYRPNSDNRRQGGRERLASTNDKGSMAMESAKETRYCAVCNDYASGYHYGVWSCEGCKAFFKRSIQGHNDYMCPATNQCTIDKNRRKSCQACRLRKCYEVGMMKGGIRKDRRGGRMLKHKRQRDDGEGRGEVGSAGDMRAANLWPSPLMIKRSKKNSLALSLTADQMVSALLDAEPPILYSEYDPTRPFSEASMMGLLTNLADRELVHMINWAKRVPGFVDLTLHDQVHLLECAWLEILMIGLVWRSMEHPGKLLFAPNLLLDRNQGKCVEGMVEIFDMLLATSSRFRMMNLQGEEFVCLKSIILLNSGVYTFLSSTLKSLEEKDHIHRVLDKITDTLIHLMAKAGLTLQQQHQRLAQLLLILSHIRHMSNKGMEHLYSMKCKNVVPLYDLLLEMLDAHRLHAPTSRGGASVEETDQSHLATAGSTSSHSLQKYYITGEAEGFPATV
Experimental: ER Degradation Determination by Western Blot
MCF-7 cells are plated at 0.3 million cells/mL (3 mL/well) in 6-well plates in experiment media and incubated at 37° C., 5% CO2 for […]. Next day, 10× solution of compounds are made in DMSO and added the solution to the cells to achieve a final concentration of 10 μM. A DMSO control is included to enable a determination of the relative efficacy of test compounds. Fulvestrant is used as a positive control for ER-alpha degradation, and 4-OH tamoxifen as a control for receptor stabilization. After incubating cells with compounds for 18-24 hours, cell lysates are prepared (2× Cell lysis buffer:100 mM Tris, pH 8, 300 mM NaCl, 2% NP40, 1% Na deoxycholate, 0.04% SDS, 2 mM EDTA) and mixed thoroughly and incubated on ice. The protein concentration is quantified using BCA kit. […] The gel was then transferred onto a nitrocellulose membrane. […] GAPDH protein was used as an internal control.

[1] = Pharmacokinetic Determination (Rat PK); assay type: in vivo; conditions: plasma, female SD rats
Experimental: Example D Pharmacokinetic Determination
Grouping female SD rats weighing 200-300 g randomly to two groups; one group was administered with test compound at a dose of 3.0 mg/kg by intravenous injection, the other group was administered with test compound at a dose of 10.0 mg/kg by oral. The formulation for IV groups is DMSO/PEG400/150 mM glycine (pH 9) (5/10/85) and the formulation for PO groups is PEG400/PVP/Tween 80/0.5% CMC in water (9/0.5/0.5/90). After administering, blood samples of intravenous injection group were collected at time points of predose, 0.0833, 0.25, 0.5, 1, 2, 4, 8, 12 and 24 h; blood samples of oral group were collected at time points of predose, 0.25, 0.5, 1, 2, 4, 8, 12, and 24 h. Standard curve was plotted based on concentrations of the samples in a suitable range, the concentrations of test compounds in plasma samples were determined by using LC-MS/MS. Pharmacokinetic parameters were calculated according to drug concentration-time curve using a noncompartmental method by WinNonLin (Phoenix™, version 6.1) or other similar software.

Compound | pIC50 (MCF7) | also measured
C[C@@H]1Cc2c([nH]c3ccccc23)[C@@H](c2c(F)cc(/C=C/C(=O)O)cc2F)N1C12CC(C(F)(F)F)(C1)C2 (single isomer, unassigned) [Example 4A] | 6.60 to 7.60 | ERα % degradation (ERα): A (A = ERα % degradation ≥80%)
C[C@@H]1Cc2c([nH]c3ccccc23)[C@@H](c2c(F)cc(/C=C/C(=O)O)cc2F)N1C1CC(F)(F)C1 (single isomer, unassigned) [Example 9A] | 6.60 to 7.60 | ERα % degradation (ERα): A (A = ERα % degradation ≥80%)
C[C@H]1Cc2c([nH]c3ccc(O)cc23)[C@H](c2c(F)cc(/C=C/C(=O)O)cc2F)N1CC(C)(C)F (single isomer, unassigned) [Example 13A] | 6.60 to 7.60 | 
C[C@@H]1Cc2c([nH]c3ccc(O)cc23)[C@@H](c2c(F)cc(/C=C/C(=O)O)cc2F)N1CC(C)(C)F (single isomer, unassigned) [Example 13B] | ≥ 7.60 | ERα % degradation (ERα): B (B = ERα % degradation <80%)
CC[C@@H]1Cc2c([nH]c3ccccc23)[C@@H](c2c(F)cc(/C=C/C(=O)O)cc2F)N1[C@H]1CCOC1 (single isomer, unassigned) [Example 23A] | ≥ 7.60 | 
CC[C@@H]1Cc2c([nH]c3ccccc23)[C@@H](c2c(F)cc(/C=C/C(=O)O)cc2F)N1[C@@H]1CCOC1 (single isomer, unassigned) [Example 23B] | 6.60 to 7.60 | 
CC[C@@H]1Cc2c([nH]c3ccccc23)[C@@H](c2c(F)cc(/C=C/C(=O)O)cc2F)N1C12CC(C1)C2 (single isomer, unassigned) [Example 25A] | ≤ 6.60 | 
CC[C@H]1Cc2c([nH]c3ccccc23)[C@H](c2c(F)cc(/C=C/C(=O)O)cc2F)N1C12CC(C1)C2 (single isomer, unassigned) [Example 25B] | ≥ 7.60 | 
CC/C(=C(/c1ccc(/C=C/C(=O)O)cc1)c1ccc2[nH]ncc2c1)c1ccc(F)cc1Cl [ARN810, reference compound] | ≥ 7.60 | AUC(0-inf) ([1]; IV, 3.0 mg/kg): 5.9 µM·h; clearance ([1]; IV, 3.0 mg/kg): 19 mL/min/kg; half-life ([1]; IV, 3.0 mg/kg): 4.7 h; Vd ([1]; IV, 3.0 mg/kg, read-out: Vdss): 1.2 L/kg; bioavailability ([1]; PO 10.0 mg/kg vs IV 3.0 mg/kg): 117%; AUC(0-inf) ([1]; PO, 10.0 mg/kg): 23 µM·h; Cmax ([1]; PO, 10.0 mg/kg): 6.7 µM; Tmax ([1]; PO, 10.0 mg/kg): 1 h; half-life ([1]; PO, 10.0 mg/kg): 6.9 h
C[C@@H]1Cc2c([nH]c3ccccc23)[C@@H](c2c(F)cc(/C=C/C(=O)O)cc2F)N1C1CCOCC1 [Example 6A, (E)-3-(3,5-Difluoro-4-((1R,3R)-3-methyl-2-(tetrahydro-2H-pyran-4-yl)-2,3,4,9-tetrahydro-1H-pyrido[3,4-b]indol-1-yl)phenyl)acrylic acid] |  | ERα % degradation (ERα): B (B = ERα % degradation <80%)
C[C@@H]1Cc2c([nH]c3ccccc23)[C@@H](c2c(F)cc(/C=C/C(=O)O)cc2F)N1[C@@H]1CCOC1 [Example 8B, (E)-3-(3,5-Difluoro-4-((1R,3R)-3-methyl-2-((R)-tetrahydrofuran-3-yl)-2,3,4,9-tetrahydro-1H-pyrido[3,4-b]indol-1-yl)phenyl)acrylic acid] | 6.60 to 7.60 | ERα % degradation (ERα): B (B = ERα % degradation <80%)
C[C@@H]1Cc2c([nH]c3ccccc23)[C@H](c2c(F)cc(/C=C/C(=O)O)cc2F)N1C12CC(C1)C2 [Example 11C, (E)-3-(4-((1S,3R)-2-(Bicyclo[1.1.1]pentan-1-yl)-3-methyl-2,3,4,9-tetrahydro-1H-pyrido[3,4-b]indol-1-yl)-3,5-difluorophenyl)acrylic acid] | ≤ 6.60 | 
[2H][C@@]1(c2c(F)cc(/C=C/C(=O)O)cc2F)c2[nH]c3ccccc3c2C[C@@H](C)N1C12CC(C1)C2 [Example 11D, (E)-3-(4-((1R,3R)-2-(Bicyclo[1.1.1]pentan-1-yl)-3-methyl-2,3,4,9-tetrahydro-1H-pyrido[3,4-b]indol-1-yl-1-d)-3,5-difluorophenyl)acrylic acid] | ≥ 7.60 | 
C[C@@H]1Cc2c([nH]c3cc(O)ccc23)[C@@H](c2c(F)cc(/C=C/C(=O)O)cc2F)N1CC(C)(C)F [Example 15A, (E)-3-(3,5-Difluoro-4-((1R,3R)-2-(2-fluoro-2-methylpropyl)-7-hydroxy-3-methyl-2,3,4,9-tetrahydro-1H-pyrido[3,4-b]indol-1-yl)phenyl)acrylic acid] | ≥ 7.60 | 
C[C@@H]1Cc2c([nH]c3ccccc23)[C@@H](c2c(F)cc(/C=C/C(=O)O)cc2F)N1CC1(F)COC1 [Example 16A, (E)-3-(3,5-Difluoro-4-((1R,3R)-2-((3-fluorooxetan-3-yl)methyl)-3-methyl-2,3,4,9-tetrahydro-1H-pyrido[3,4-b]indol-1-yl)phenyl)acrylic acid] | ≥ 7.60 | 
C[C@@H]1Cc2c([nH]c3ccccc23)[C@@H](c2c(F)cc(/C=C/C(=O)O)cc2F)N1CC1COC1 [Example 17A] | 6.60 to 7.60 | 
C[C@@H]1Cc2c([nH]c3ccccc23)[C@@H](c2c(F)cc(/C=C/C(=O)O)cc2F)N1CC1(C)COC1 [Example 18A, (E)-3-(3,5-Difluoro-4-((1R,3R)-3-methyl-2-((3-methyloxetan-3-yl)methyl)-2,3,4,9-tetrahydro-1H-pyrido[3,4-b]indol-1-yl)phenyl)acrylic acid] | ≥ 7.60 | 
O=C(O)/C=C/c1cc(F)c(C2c3[nH]c4ccccc4c3C[C@@H](C(F)F)N2C2CCOC2)c(F)c1 (stereo partly drawn) [Example 19A, (E)-3-(4-((3S)-3-(Difluoromethyl)-2-(tetrahydrofuran-3-yl)-2,3,4,9-tetrahydro-1H-pyrido[3,4-b]indol-1-yl)-3,5-difluorophenyl)acrylic acid] | ≥ 7.60 | 
CC1(C)Cc2c([nH]c3ccccc23)C(c2c(F)cc(/C=C/C(=O)O)cc2F)N1CC12CC(C1)C2 (stereo not shown) [Example 22, (E)-3-(4-(2-(Bicyclo[1.1.1]pentan-1-ylmethyl)-3,3-dimethyl-2,3,4,9-tetrahydro-1H-pyrido[3,4-b]indol-1-yl)-3,5-difluorophenyl)acrylic acid] | 6.60 to 7.60 | 
CCC1Cc2c([nH]c3ccccc23)C(c2c(F)cc(/C=C/C(=O)O)cc2F)N1CC12CC(C1)C2 (stereo not shown) [Example 24, (E)-3-(4-(2-(Bicyclo[1.1.1]pentan-1-ylmethyl)-3-ethyl-2,3,4,9-tetrahydro-1H-pyrido[3,4-b]indol-1-yl)-3,5-difluorophenyl)acrylic acid] | 6.60 to 7.60 | 
C[C@@H]1Cc2c(n(C)c3ccccc23)[C@@H](c2c(F)cc(/C=C/C(=O)O)cc2F)N1C12CC(C1)C2 [Example 26A, (E)-3-(4-((1R,3R)-2-(bicyclo[1.1.1]pentan-1-yl)-3,9-dimethyl-2,3,4,9-tetrahydro-1H-pyrido[3,4-b]indol-1-yl)-3,5-difluorophenyl)acrylic acid] | ≤ 6.60 | 

Reference: patent US11065234B2, “Estrogen receptor modulators” (Recurium IP Holdings, LLC, priority 2016, dated 2021)
